Laboratory results taken from PubChem BioAssay (NCI).
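Interpolation was linear, between the two tested concentrations surrounding the appropriate level; five concentrations were tested over 48 hours in 96-well plates. Here, GI50 denotes the concentration required for 50% inhibition of growth. TGI marks complete inhibition of growth.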

Tests used:
Experiment in all cases: inhibition of tumour cell growth, NCI panel, 48 h
[1] = system: SK-MEL-5 melanoma
[2] = system: OVCAR-4 ovarian
[3] = system: UACC-62 melanoma
[4] = system: SNB-19 CNS
[5] = system: HCT-15 colon
[6] = system: UACC-257 melanoma
[7] = system: MALME-3M melanoma
[8] = system: CCRF-CEM leukemia
[9] = system: MOLT-4 leukemia
[10] = system: SW-620 colon
[11] = system: OVCAR-3 ovarian
[12] = system: NCI-H226 lung
[13] = system: SNB-75 CNS
[14] = system: NCI-H23 lung
[15] = system: NCI-H522 lung
[16] = system: KM12 colon
[17] = system: NCI-H460 lung
[18] = system: RXF 393 renal
[19] = system: HOP-62 NSCLC
[20] = system: HS 578T breast
[21] = system: SN12C renal
[22] = system: MDA-MB-435
[23] = system: ACHN renal
[24] = system: CAKI-1 renal
[25] = system: MDA-MB-468 breast
[26] = system: SF-539 CNS
[27] = system: OVCAR-8 ovarian
[28] = system: U251 CNS
[29] = system: SK-MEL-2 melanoma
[30] = system: A498 renal
[31] = system: HCT-116 colon
[32] = system: SF-268 CNS
[33] = system: MCF7 breast
[34] = system: DU-145 prostate
[35] = system: UO-31 renal
[36] = system: A549 NSCLC
[37] = system: K-562 leukemia
[38] = system: SF-295 CNS
[39] = system: LOX IMVI melanoma
[40] = system: T-47D breast
[41] = system: HCC-2998 colon
[42] = system: HOP-92 NSCLC
[43] = system: EKVX NSCLC
[44] = system: PC-3 prostate
[45] = system: MDA-MB-231 breast
[46] = system: HL-60(TB) leukemia
[47] = system: RPMI-8226 leukemia
[48] = system: BT-549 breast
[49] = system: NCI/ADR-RES ovarian
[50] = system: M14 melanoma
[51] = system: HT29 colon
[52] = system: 786-0 renal
[53] = system: SK-MEL-28 melanoma
[54] = system: COLO 205 colon
[55] = system: TK-10 renal
[56] = system: OVCAR-5 ovarian
[57] = system: SR leukemia
[58] = system: SK-OV-3 ovarian
[59] = system: IGROV1 ovarian

O=C(Nc1ccc(-c2ccc3c(c2)NC(=O)/C3=C\c2ccc[nH]2)cc1)Nc1cccc(Cl)c1
GI50 [1]: 1.88 µM
TGI [1]: 4.5 µM
GI50 [2]: 1.76 µM
TGI [2]: 9.71 µM
GI50 [3]: 2.1 µM
TGI [3]: 6.03 µM
GI50 [4]: 4.7 µM
TGI [4]: 35.8 µM
GI50 [5]: 1.9 µM
TGI [5]: 10.8 µM
GI50 [6]: 3.42 µM
TGI [6]: 24.5 µM
GI50 [7]: 2.32 µM
TGI [7]: 7.2 µM
GI50 [8]: 0.846 µM
TGI [8]: 4.41 µM
GI50 [9]: 0.895 µM
TGI [9]: 11.1 µM
GI50 [10]: 2.29 µM
TGI [10]: 11.7 µM
GI50 [11]: 1.69 µM
TGI [11]: 3.85 µM
GI50 [12]: 2.51 µM
TGI [12]: 9.27 µM
GI50 [13]: 2.97 µM
TGI [13]: 7.93 µM
GI50 [14]: 1.08 µM
TGI [14]: 3.79 µM
GI50 [15]: 1.6 µM
TGI [15]: 5.1 µM
GI50 [16]: 0.0672 µM
TGI [16]: 2 µM
GI50 [17]: 0.766 µM
TGI [17]: 4 µM
GI50 [18]: 2.07 µM
TGI [18]: 4.52 µM
GI50 [19]: 1.99 µM
TGI [19]: 6.15 µM
GI50 [20]: 2.73 µM
TGI [20]: 8.74 µM
GI50 [21]: 4.44 µM
TGI [21]: 24.3 µM
GI50 [22]: 1 µM
TGI [22]: 14.1 µM
GI50 [23]: 1.81 µM
TGI [23]: 6.57 µM
GI50 [24]: 1.33 µM
TGI [24]: 6.39 µM
GI50 [25]: 0.286 µM
TGI [25]: 0.838 µM
GI50 [26]: 1.43 µM
TGI [26]: 3.06 µM
GI50 [27]: 2.44 µM
TGI [27]: 6.53 µM
GI50 [28]: 2.98 µM
TGI [28]: 11.6 µM
GI50 [29]: 2.2 µM
TGI [29]: 6.05 µM
GI50 [30]: 3.46 µM
TGI [30]: 11.1 µM
GI50 [31]: 1.68 µM
TGI [31]: 11.7 µM
GI50 [32]: 4.6 µM
TGI [32]: 60.9 µM
GI50 [33]: 0.329 µM
TGI [33]: 7.58 µM
GI50 [34]: 4.76 µM
TGI [34]: 92.8 µM
GI50 [35]: 1.77 µM
TGI [35]: 12.7 µM
GI50 [36]: 2.09 µM
TGI [36]: 7.09 µM
GI50 [37]: 1.09 µM
TGI [37]: > 100 µM
GI50 [38]: 1.9 µM
TGI [38]: 5.02 µM
GI50 [39]: 1.53 µM
TGI [39]: 3.39 µM
GI50 [40]: 0.424 µM
TGI [40]: 5.36 µM
GI50 [41]: 1.78 µM
TGI [41]: 5.61 µM
GI50 [42]: 4.81 µM
TGI [42]: 24.4 µM
GI50 [43]: 0.775 µM
TGI [43]: 10.7 µM
GI50 [44]: 2.19 µM
TGI [44]: 11.2 µM
GI50 [45]: 1.64 µM
TGI [45]: 3.86 µM
GI50 [46]: 1.64 µM
TGI [46]: 14.5 µM
GI50 [47]: 2.62 µM
TGI [47]: 15.3 µM
GI50 [48]: 2.33 µM
TGI [48]: 6.65 µM
GI50 [49]: 2.14 µM
TGI [49]: 6.01 µM
GI50 [50]: 3.23 µM
TGI [50]: 26.1 µM
GI50 [51]: 1.86 µM
TGI [51]: 4.54 µM
GI50 [52]: 2.42 µM
TGI [52]: 7.45 µM
GI50 [53]: 3.09 µM
TGI [53]: 10.2 µM
GI50 [54]: 1.92 µM
TGI [54]: 3.79 µM
GI50 [55]: 2.88 µM
TGI [55]: 9.85 µM
GI50 [56]: 1.78 µM
TGI [56]: 3.76 µM
GI50 [57]: 1.27 µM
TGI [57]: 32.5 µM
GI50 [58]: 3.43 µM
TGI [58]: 14.4 µM
GI50 [59]: 1.7 µM
TGI [59]: 3.78 µM
